Measured values published in ChEMBL document CHEMBL4420076, “Amylin and calcitonin receptor agonist” (2017).
Numbered stars: 1 amine (or outer) side, 2 acyl side, 3 side chain; on linkers, the order of the positions; unused ones are H or OH. Peptide text beside a SMILES is read from it. * marks the point of attachment. C20 diacid = O=C(O)CCCCCCCCCCCCCCCCCCC(=O)*; C18 diacid = O=C(O)CCCCCCCCCCCCCCCCC(=O)*; γGlu = O=C(O)[C@H](CCC(=O)[*:2])N[*:1]

What was measured:
[1] = target: T1, Amylin receptor AMY3; CALCR/RAMP3 (Homo sapiens, UniProt O60896+P30988); assay: Agonist activity at human amylin receptor expressed in BHK570 cells co-expressing RAMP3 assessed as increase in intracellular cAMP concentration incubated for 3 hrs in absence of albumin by CRE luciferase reporter gene assay; type: functional, cell-based
T1 sequence (P30988 whole entry): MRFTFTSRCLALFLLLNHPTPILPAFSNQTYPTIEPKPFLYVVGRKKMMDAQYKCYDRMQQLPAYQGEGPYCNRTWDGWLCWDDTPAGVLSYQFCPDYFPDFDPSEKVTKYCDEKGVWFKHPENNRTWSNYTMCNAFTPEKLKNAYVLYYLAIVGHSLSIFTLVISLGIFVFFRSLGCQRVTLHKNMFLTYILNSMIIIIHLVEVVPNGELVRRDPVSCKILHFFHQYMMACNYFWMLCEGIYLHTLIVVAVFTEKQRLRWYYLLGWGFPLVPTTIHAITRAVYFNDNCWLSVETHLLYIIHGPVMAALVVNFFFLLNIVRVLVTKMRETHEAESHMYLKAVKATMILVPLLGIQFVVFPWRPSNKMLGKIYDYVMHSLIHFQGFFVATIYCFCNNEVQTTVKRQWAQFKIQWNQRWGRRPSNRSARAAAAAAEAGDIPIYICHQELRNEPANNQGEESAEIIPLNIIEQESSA
T1 sequence (O60896 whole entry): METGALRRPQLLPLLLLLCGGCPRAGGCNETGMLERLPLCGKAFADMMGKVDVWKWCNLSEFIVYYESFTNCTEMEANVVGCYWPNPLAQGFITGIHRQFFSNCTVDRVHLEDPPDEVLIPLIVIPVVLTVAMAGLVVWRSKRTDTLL

[2] = target: T2, Calcitonin receptor (Homo sapiens, UniProt P30988); assay: Agonist activity at human calcitonin receptor expressed in BHK570 cells assessed as increase in intracellular cAMP concentration incubated for 3 hrs in absence of albumin by CRE luciferase reporter gene assay; type: functional, cell-based
T2 sequence (P30988 whole entry): T1 sequence (P30988 whole entry)

[3] = Solubility in 100 mM glycylglycine buffer at pH 3.0 incubated for 18 hrs by UPLC analysis; type: physicochemical
[4] = Solubility in 100 mM glycylglycine buffer at pH 4.0 incubated for 18 hrs by UPLC analysis; type: physicochemical
[5] = Solubility in 100 mM bistrispropane buffer at pH 6.0 incubated for 18 hrs by UPLC analysis; type: physicochemical
[6] = Solubility in 100 mM glycylglycine buffer at pH 5.0 incubated for 18 hrs by UPLC analysis; type: physicochemical
[7] = Solubility in 100 mM bistrispropane buffer at pH 6.5 incubated for 18 hrs by UPLC analysis; type: physicochemical
[8] = Solubility in 100 mM bistrispropane buffer at pH 7.0 incubated for 18 hrs by UPLC analysis; type: physicochemical
[9] = Solubility in 100 mM bistrispropane buffer at pH 7.5 incubated for 18 hrs by UPLC analysis; type: physicochemical
[10] = Solubility in 100 mM bistrispropane buffer at pH 8.0 incubated for 18 hrs by UPLC analysis; type: physicochemical
[11] = target: T2, Calcitonin receptor; assay: Agonist activity at human calcitonin receptor expressed in BHK570 cells assessed as increase in intracellular cAMP concentration incubated for 3 hrs in presence of 10% FBS by CRE luciferase reporter gene assay; type: functional, cell-based

Row | SMILES | EC50 [1] [nM] | EC50 [2] [nM] | solubility at 18 h [3] [µM] | solubility at 18 h [4] [µM] | solubility at 18 h [5] [µM] | solubility at 18 h [6] [µM] | solubility at 18 h [7] [µM] | solubility at 18 h [8] [µM] | solubility at 18 h [9] [µM] | solubility at 18 h [10] [µM] | EC50 [11] [nM]
1 | CC(C)C[C@H](NC(=O)[C@H](C)NC(=O)[C@@H](NC(=O)[C@H](CO)NC(=O)[C@H](CC(C)C)NC(=O)[C@H](CCC(=O)O)NC(=O)[C@H](CO)NC(=O)[C@H](C)NC(=O)[C@H](CCC(=O)O)NC(=O)CCCCCCCCCCCCCCCCC(=O)O)[C@@H](C)O)C(=O)N[C@@H](C)C(=O)NCC(=O)N[C@@H](CCCNC(=N)N)C(=O)N[C@@H](CC(C)C)C(=O)N[C@@H](CO)C(=O)N[C@@H](C)C(=O)N[C@@H](CCC(=O)O)C(=O)N[C@@H](CC(C)C)C(=O)N[C@@H](Cc1cnc[nH]1)C(=O)N[C@@H](CCC(=O)O)C(=O)N[C@@H](CC(C)C)C(=O)N[C@@H](C)C(=O)N[C@H](C(=O)N[C@@H](CC(C)C)C(=O)N1CCC[C@H]1C(=O)N[C@@H](CCCNC(=N)N)C(=O)N[C@H](C(=O)N[C@@H](CCC(=O)O)C(=O)N[C@H](C(=O)NCC(=O)N1CCC[C@H]1C(=O)N[C@@H](CCC(=O)O)C(=O)N[C@@H](CO)C(=O)N1CCC[C@H]1C(N)=O)[C@@H](C)O)[C@@H](C)O)[C@@H](C)O ({C18 diacid}-EASELSTALAGRLSAELHELATLPRTETGPESP-NH2) | 0.008 | 0.004 | ≥ 200 | ≥ 200 | ≥ 200 | ≥ 200 | ≥ 200 | ≥ 200 | ≥ 200 | ≥ 200 | –
2 | CC(C)C[C@H](NC(=O)[C@H](C)NC(=O)[C@@H](NC(=O)[C@H](CO)NC(=O)[C@H](CC(C)C)NC(=O)[C@H](CCC(=O)O)NC(=O)[C@H](CO)NC(=O)[C@H](C)NC(=O)[C@H](CCC(=O)O)NC(=O)CCCCCCCCCCCCCCCCC(=O)O)[C@@H](C)O)C(=O)N[C@@H](CC(C)C)C(=O)NCC(=O)N[C@@H](CCCNC(=N)N)C(=O)N[C@@H](CC(C)C)C(=O)N[C@@H](CO)C(=O)N[C@@H](C)C(=O)N[C@@H](CCC(=O)O)C(=O)N[C@@H](CC(C)C)C(=O)N[C@@H](Cc1cnc[nH]1)C(=O)N[C@@H](CCC(=O)O)C(=O)N[C@@H](CC(C)C)C(=O)N[C@@H](C)C(=O)N[C@H](C(=O)N[C@@H](CC(C)C)C(=O)N1CCC[C@H]1C(=O)N[C@@H](CCCNC(=N)N)C(=O)N[C@H](C(=O)N[C@@H](CCC(=O)O)C(=O)N[C@H](C(=O)NCC(=O)N1CCC[C@H]1C(=O)N[C@@H](CCC(=O)O)C(=O)N[C@@H](CO)C(=O)N1CCC[C@H]1C(N)=O)[C@@H](C)O)[C@@H](C)O)[C@@H](C)O ({C18 diacid}-EASELSTALLGRLSAELHELATLPRTETGPESP-NH2) | 0.028 | 0.013 | ≥ 200 | ≥ 200 | ≥ 200 | ≥ 200 | ≥ 200 | ≥ 200 | ≥ 200 | ≥ 200 | –
3 | CC(C)C[C@H](NC(=O)[C@H](C)NC(=O)[C@H](C)NC(=O)[C@@H](NC(=O)[C@H](CO)NC(=O)[C@H](CC(C)C)NC(=O)[C@H](CCC(=O)O)NC(=O)[C@H](CO)NC(=O)[C@H](C)NC(=O)CC[C@H](NC(=O)CCCCCCCCCCCCCCCCCCC(=O)O)C(=O)O)[C@@H](C)O)C(=O)NCC(=O)N[C@@H](CCCNC(=N)N)C(=O)N[C@@H](CC(C)C)C(=O)N[C@@H](CO)C(=O)N[C@@H](C)C(=O)N[C@@H](CCC(=O)O)C(=O)N[C@@H](CC(C)C)C(=O)N[C@@H](Cc1cnc[nH]1)C(=O)N[C@@H](CCC(=O)O)C(=O)N[C@@H](CC(C)C)C(=O)N[C@@H](CO)C(=O)N[C@H](C(=O)N[C@@H](Cc1ccc(O)cc1)C(=O)N1CCC[C@H]1C(=O)N[C@@H](CCCNC(=N)N)C(=O)N[C@H](C(=O)N[C@@H](CCC(=O)O)C(=O)N[C@H](C(=O)NCC(=O)N[C@@H](CO)C(=O)NCC(=O)N[C@@H](CO)C(=O)N1CCC[C@H]1C(N)=O)[C@@H](C)O)[C@@H](C)O)[C@@H](C)O ({C20 diacid-γGlu}-ASELSTAALGRLSAELHELSTYPRTETGSGSP-NH2) | 0.033 | 0.027 | ≥ 200 | ≥ 200 | ≥ 200 | – | ≥ 200 | ≥ 200 | ≥ 200 | ≥ 200 | 0.03
4 | CC(C)C[C@H](NC(=O)[C@H](CO)NC(=O)[C@H](C)NC(=O)[C@@H](NC(=O)[C@H](CO)NC(=O)[C@H](CC(C)C)NC(=O)[C@H](CCC(=O)O)NC(=O)[C@H](CO)NC(=O)[C@H](C)NC(=O)CC[C@H](NC(=O)CCCCCCCCCCCCCCCCCCC(=O)O)C(=O)O)[C@@H](C)O)C(=O)NCC(=O)N[C@@H](CCCNC(=N)N)C(=O)N[C@@H](CC(C)C)C(=O)N[C@@H](CO)C(=O)N[C@@H](C)C(=O)N[C@@H](CCC(=O)O)C(=O)N[C@@H](CC(C)C)C(=O)N[C@@H](Cc1cnc[nH]1)C(=O)N[C@@H](CCC(=O)O)C(=O)N[C@@H](CC(C)C)C(=O)N[C@@H](C)C(=O)N[C@H](C(=O)N[C@@H](Cc1ccc(O)cc1)C(=O)N1CCC[C@H]1C(=O)N[C@@H](CCCNC(=N)N)C(=O)N[C@H](C(=O)N[C@@H](CCC(=O)O)C(=O)N[C@H](C(=O)NCC(=O)N[C@@H](CO)C(=O)NCC(=O)N[C@@H](CO)C(=O)N[C@@H](Cc1ccc(O)cc1)C(N)=O)[C@@H](C)O)[C@@H](C)O)[C@@H](C)O ({C20 diacid-γGlu}-ASELSTASLGRLSAELHELATYPRTETGSGSY-NH2) | 0.037 | – | ≥ 200 | – | ≥ 200 | – | ≥ 200 | ≥ 200 | ≥ 200 | ≥ 200 | 0.042

More lines, in order of falling EC50 [1], values ahead:

Row | EC50 [1] [nM] | EC50 [2] [nM] | solubility at 18 h [3] [µM] | solubility at 18 h [4] [µM] | solubility at 18 h [5] [µM] | solubility at 18 h [6] [µM] | solubility at 18 h [7] [µM] | solubility at 18 h [8] [µM] | solubility at 18 h [9] [µM] | solubility at 18 h [10] [µM] | EC50 [11] [nM] | SMILES
5 | 0.016 | 0.008 | ≥ 200 | ≥ 200 | ≥ 200 | ≥ 200 | ≥ 200 | ≥ 200 | ≥ 200 | ≥ 200 | – | CC(C)C[C@H](NC(=O)[C@H](CCC(=O)O)NC(=O)[C@H](Cc1cnc[nH]1)NC(=O)[C@H](CC(C)C)NC(=O)[C@H](CCC(=O)O)NC(=O)[C@H](C)NC(=O)[C@H](CO)NC(=O)[C@H](CC(C)C)NC(=O)[C@H](CCCCN)NC(=O)CNC(=O)[C@H](CC(C)C)NC(=O)[C@@H](NC(=O)[C@H](C)NC(=O)[C@@H](NC(=O)[C@H](CO)NC(=O)[C@H](CC(C)C)NC(=O)[C@H](CCC(=O)O)NC(=O)[C@H](CO)NC(=O)[C@H](C)NC(=O)[C@H](CCC(=O)O)NC(=O)CCCCCCCCCCCCCCCCC(=O)O)[C@@H](C)O)C(C)C)C(=O)N[C@@H](C)C(=O)N[C@H](C(=O)N[C@@H](CC(C)C)C(=O)N1CCC[C@H]1C(=O)N[C@@H](CCCCN)C(=O)N[C@H](C(=O)N[C@@H](CCC(=O)O)C(=O)N[C@H](C(=O)NCC(=O)N1CCC[C@H]1C(=O)N[C@@H](CCC(=O)O)C(=O)N[C@@H](CO)C(=O)N1CCC[C@H]1C(N)=O)[C@@H](C)O)[C@@H](C)O)[C@@H](C)O ({C18 diacid}-EASELSTAVLGKLSAELHELATLPKTETGPESP-NH2)
6 | 0.012 | 0.006 | ≥ 200 | ≥ 200 | ≥ 200 | ≥ 200 | ≥ 200 | ≥ 200 | ≥ 200 | ≥ 200 | – | CC(C)C[C@H](NC(=O)[C@H](CCC(=O)O)NC(=O)[C@H](Cc1cnc[nH]1)NC(=O)[C@H](CC(C)C)NC(=O)[C@H](CCC(=O)O)NC(=O)[C@H](C)NC(=O)[C@H](CO)NC(=O)[C@H](CC(C)C)NC(=O)[C@H](CCCNC(=N)N)NC(=O)CNC(=O)[C@H](CC(C)C)NC(=O)[C@@H](NC(=O)[C@H](C)NC(=O)[C@@H](NC(=O)[C@H](CO)NC(=O)[C@H](CC(C)C)NC(=O)[C@@H]1CCCN1C(=O)[C@@H]1CCCN1C(=O)[C@H](C)NC(=O)[C@H](CCC(=O)O)NC(=O)CCCCCCCCCCCCCCCCC(=O)O)[C@@H](C)O)C(C)C)C(=O)N[C@@H](C)C(=O)N[C@H](C(=O)N[C@@H](CC(C)C)C(=O)N1CCC[C@H]1C(=O)N[C@@H](CCCNC(=N)N)C(=O)N[C@H](C(=O)N[C@@H](CCC(=O)O)C(=O)N[C@H](C(=O)NCC(=O)N1CCC[C@H]1C(=O)N[C@@H](CCC(=O)O)C(=O)N[C@@H](CO)C(=O)N1CCC[C@H]1C(N)=O)[C@@H](C)O)[C@@H](C)O)[C@@H](C)O ({C18 diacid}-EAPPLSTAVLGRLSAELHELATLPRTETGPESP-NH2)
